Source: patent US20090305954A1, “HISTIDINE-CONTAINING DIASTEREOMERIC PEPTIDES AND USES THEREOF” (Yeda Research and Development Co. Ltd., priority 2005, published 2009)
Square brackets hold non-standard residues; d marks the D form. Peptide text beside a SMILES is read from it.

Experiments:
[1] = tested on: RFP-MDA-MB-231 breast cancer (BC) cells xenograft; assay: Inhibition of tumor growth in breast cancer xenografts; assay type: in vivo, female SCID/NCr mice
Protocol: RFP-MDA-MB-231 breast cancer (BC) cells were injected (5×10^6 cells in 0.1 ml PBS) into the left mammary fat pad of 8-week-old female SCID/NCr mice (NCI, USA) as previously described ([…] et al., 2004). […] Mice were weighed and tumor volume was measured by a caliper (expressed in weight units (mg) (Papo et al., 2003) twice a week for a period of 45 days. Monitoring of solid breast tumor and its derived metastases was done by in vivo fluorescence. Tumor fluorescence intensity was monitored in real time by using in vivo optical imaging system (IVIS) and was recorded once a week during the period of 38 days.

[2] = Interaction with Matrigel matrix, analysed by RP-HPLC and mass spectroscopy; assay type: in vitro ADME; details: mixed with Matrigel matrix for one hour
[3] = tested on: PC3 human prostate cancer cell line; assay: XTT proliferation (cytotoxicity) assay, PC3; assay type: cell-based; details: PC3, pH 7.4, 24 h
Protocol: (§1) The CL1 human prostate carcinoma (PC) cell line is an androgen-independent (AI) subclone of LNCaP cell line, which was generated by culturing androgen-dependent (AD) LNCaP cells in charcoal-stripped, […], as described (Patel et al. 2000). 22RV1 human PC cells are AI sub-clones of the AD prostatic adenocarcinoma CWR22 xenograft (Sramkoski et al. 1999). CL1 and 22RV1 (ATCC, USA) were grown in RPMI-1640 supplemented with 10% FCS (Biological Industries, Beit Haemek, Israel). PC3 and DU145 are androgen-insensitive (AI) (non-responsive), invasive human prostate cancer cell lines. NIH-3T3 mouse fibroblast cell lines (ATCC, USA) were grown in DMEM supplemented with 10% BS. Murine Lewis lung carcinoma (LLC) cell lines were also grown in DMEM medium supplemented with 10% fetal calf serum and antibiotics under the same conditions as above.
(§2) The anticancer activity of the diastereomers 1, 5 and 11-16, 36-39, 42 and 44 was examined against human CL1 prostate cancer, murine LLC (Lewis lung carcinoma), DU 145 and PC3 cell lines. The cell selectivity of the diastereomeric peptides was also studied by examining their effect on NIH-3T3 normal mouse fibroblasts cell line.
A 96-well plate (Falcon) was used for the XTT proliferation assay. Cancer cells were grown for 24 hours (day 1) in RPMI-1640 medium (5×10^3, 7×10^3, 1×10^4 and 7×10^3 cells/100 μl for LLC, CL1, 22RVI, DU 145 and PC3, respectively) supplemented with 10% fetal calf serum and antibiotics, at 37° C., in humidified atmosphere at 5% CO2 and 95% air, resulting in growth medium pH of 7.4. […]
In day 3, XTT reaction solution was prepared by adding to 100 μl aliquots of activation solution (sodium 3′-[1-(phenyl-aminocarbonyl)-3,4-tetrazolium]-bis(4-methoxy-6-nitro) benzene sulfonic acid hydrate and N-methyl dibenzopyrazine methyl sulfate; mixed in a proportion of 50:1) (protected from light and kept in −20° C.), the substrate. […] The optical density was read at wavelength of 450 nm in an ELISA plate reader. Cell viability was determined relative to the control and final results were recorded. […]

[4] = tested on: 22RV1 human PC cells xenograft; assay: Inhibition of tumor growth in human prostate cancer xenografts, 22RV1; assay type: in vivo, nude male mice; details: 22RV1 xenograft
Protocol: (i) Inhibition of tumor growth in human prostate cancer xenografts. Subcutaneouse (s.c.) implantation of human PC cells in mice was done as previously described in Gavish et al. (Gavish et al. 2002). Briefly, 0.1 ml AI CL1 or 22RV1 human PC cells (5×10^6 cells) in Matrigel were inoculated s.c. into the dorsal side of five to six week-old nude male mice weighing 20-25 g (Harlen Co., Israel). Two weeks after cell implantation, when the tumors diameter reached ≧5 mm (denoted as day 1), the diastereomer 13 and its all L-amino acid analog peptide (at 1 mg/kg, 0.1 mM), or vehicle (PBS, pH=7.4) were injected intratumorally (dosing volume of 2.5 ml/kg) three times a week for a total of 9 doses. Tumor size was measured by a caliper and recorded twice a week during a period of 28 days. Mice were weighed and tumor weight (mg) was estimated by using the formula of length×width×depth×0.52 in mm^3, assuming the specific gravity to be 1. At the end of the treatment, the mice were killed, and the tumors were removed, photographed, and weighed. The animal experimentation was conducted according to the rules of the Institutional Animal Care and Use Committee.
Serum PSA levels. Four weeks after the first treatment, blood was withdrawn from the 22RV1-inoculated mice in order to determine the level of prostate specific antigen (PSA). The blood samples were taken directly to heparin containing tubes, centrifuged, and the supernatants were stored at −20° C. The CanAg PSA EIA kit (CanAg Diagnostics) was used to determine the total PSA in the mice plasma (Gavish et al., 2002). Tumor weight and PSA levels, represented as the mean±SE, were calculated from the raw data and then subjected to Student's t test. A value of P<0.05 was considered as statistically significant.

[5] = tested on: Murine Lewis lung carcinoma (LLC) cell line; assay: XTT proliferation (cytotoxicity) assay, LLC; assay type: cell-based
Protocol: as §1, §2
A 96-well plate (Falcon) was used for the XTT proliferation assay. Cancer cells were grown for 24 hours (day 1) in RPMI-1640 medium ([…] cells/100 μl for LLC, CL1, 22RVI, DU 145 and PC3, respectively) supplemented with 10% fetal calf serum and antibiotics, at 37° C., in humidified atmosphere at 5% CO2 and 95% air, resulting in growth medium pH of 7.4. NIH-3T3 fibroblast cells (1×10^4 cells/100 μl) were grown in DMEM medium supplemented with 10% bovine calf serum and antibiotics under the same conditions as described above for the cancerous cells. Wells in the last two rows served as blanks (medium only, for measuring the background color of the medium) and 100% survival controls (cells and medium only without treatment), respectively.
In day 2, the peptides were dissolved in sterile PBS to a concentration of 200 μM (or 500 μM). The medium in the assay wells was replaced with 100 μl serum free medium. For the assays at pH 6, the medium was initially concentrated (×5 or ×10) and then diluted with double distilled water and addition of sodium carbonate. Before reaching the correct dilution, the medium was adjusted to pH 6 and then more water was added to reach the final dilution. The cells were grown in physiological pH, and the acidic pH was used only during the 24 hours incubation with the peptides. A sign for the correct acidity was a light yellow color of the medium. In line A of the plate, 160 μl of serum free medium was added, if the initial peptide concentration was 500 μM.
Peptide solutions, 100 μl (or 40 μl) were added to each assay well in line A, such that the final concentration of the peptide was […] and the volume 200 μl. The medium in the wells was mixed with multichannel pipette 5 times and 100 μl of it were transferred to the next row of wells (line B), to give a peptide concentration of 50 μM. The double dilution of the peptides continued downstream the plate in the same manner. The plates were then incubated for 24 h.
In day 3, XTT reaction solution was prepared by adding to 100 μl aliquots of activation solution (sodium 3′-[1-(phenyl-aminocarbonyl)-3,4-tetrazolium]-bis(4-methoxy-6-nitro) benzene sulfonic acid hydrate and N-methyl dibenzopyrazine methyl sulfate; mixed in a proportion of 50:1) (protected from light and kept in −20° C.), the substrate. 50 μl of XTT reaction solution were added to each well and the plates were incubated for 2 hours (37° C. and 5% CO2+95% air. In cases the incubation was not enough for the creation of the color, it was extended for up to 24 hours). The optical density was read at wavelength of 450 nm in an ELISA plate reader. Cell viability was determined relative to the control and final results were recorded. The results were confirmed using replications in at least three independent experiments. […]

[6] = 5 mg/kg systemically, three times a week, 9 doses

CC(C)C[C@H](NC(=O)[C@H](CC(C)C)NC(=O)[C@@H](CCCCN)NC(=O)[C@H](CC(C)C)NC(=O)[C@H](CC(C)C)NC(=O)[C@H](Cc1c[nH]cn1)NC(=O)[C@@H](CCCCN)NC(=O)[C@@H](CC(C)C)NC(=O)[C@H](CC(C)C)NC(=O)[C@@H](CCCCN)NC(=O)[C@H](Cc1c[nH]cn1)NC(=O)[C@H](CC(C)C)NC(=O)[C@@H](CC(C)C)NC(=O)[C@H](CCCCN)NC(=O)[C@@H](N)CC(C)C)C(N)=O [Peptide 13] (H-LK[dL]LH[dK]L[dL][dK]HLL[dK]LL-NH2)
tumor fluorescence (IVIS) [1, 6]: marked lowering | tumor size (caliper measurements) [1, 6]: major reduction | body weight of the animals compared with vehicle-treated control group ([1]; mouse, in vivo): increase | condition of animals ([1]; throughout the assay period): good condition | activity preserved upon interaction with the Matrigel matrix [2]: ~50% | Lethal Concentration (LC50) [3]: 25 µg/mL | tumor weight ([4]; 1 mg/kg intratumorally, 9 doses): significant reduction | PSA serum levels ([4]; four weeks after first treatment): marked decrease | Lethal Concentration (LC50) ([5]; pH 6, 24 h): 12.5 µg/mL | Lethal Concentration (LC50) ([5]; pH 7.4, 24 h): 12.5 µg/mL
